Measurements: PubChem BioAssay (NCI)
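96-well plates; 48 h exposure; 5 concentrations. Endpoints by linear interpolation between flanking doses. Not reached: highest tested concentration assigned. Definition used: TGI = concentration required for complete inhibition of growth.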

System: CAKI-1 renal
Assay: NCI anticancer screen, dose series, 48 h

SMILES	TGI [µM]
COc1cc(/C=C(\C#N)C(=O)c2ccccc2)ccc1OCc1ccccc1	> 100
C=C1C(=O)C23CC1C[C@H](OC(C)=O)[C@H]2C1(C)C(OC(C)=O)C[C@H](O)C(C)(C)[C@H]1C(=O)[C@@H]3OC(C)=O (some centres not stated)	8.17
O=C1NC(=O)C(Cc2ccccc2)(c2cccnc2)N1 (configuration not stated)	> 100
COC(=O)c1s/c(=N\C(=S)N(C)C)n(-c2ccccc2)c1C(=O)OC	> 100
COc1ccc(/C=C2\CCC(CNc3cc(C)on3)C2=O)cc1 (configuration not stated)	> 100
COC(=O)C(Cc1c[nH]c2ccccc12)N=C1Nc2ccncc2S(=O)(=O)N1c1ccccc1 (configuration not stated)	> 100
O/N=C(\c1ccccc1)N1CCCCC1	> 100

System: HOP-62 NSCLC
Assay: NCI anticancer screen, dose series, 48 h

SMILES	TGI [µM]
COc1cc(/C=C(\C#N)C(=O)c2ccccc2)ccc1OCc1ccccc1	> 100
C=C1C(=O)C23CC1C[C@H](OC(C)=O)[C@H]2C1(C)C(OC(C)=O)C[C@H](O)C(C)(C)[C@H]1C(=O)[C@@H]3OC(C)=O (some centres not stated)	42.9
O=C1NC(=O)C(Cc2ccccc2)(c2cccnc2)N1 (configuration not stated)	> 100
COC(=O)c1s/c(=N\C(=S)N(C)C)n(-c2ccccc2)c1C(=O)OC	> 100
COc1ccc(/C=C2\CCC(CNc3cc(C)on3)C2=O)cc1 (configuration not stated)	> 100
COC(=O)C(Cc1c[nH]c2ccccc12)N=C1Nc2ccncc2S(=O)(=O)N1c1ccccc1 (configuration not stated)	> 100
O/N=C(\c1ccccc1)N1CCCCC1	> 100

System: A549 NSCLC
Assay: NCI anticancer screen, dose series, 48 h

SMILES	TGI [µM]
COc1cc(/C=C(\C#N)C(=O)c2ccccc2)ccc1OCc1ccccc1	> 100
C=C1C(=O)C23CC1C[C@H](OC(C)=O)[C@H]2C1(C)C(OC(C)=O)C[C@H](O)C(C)(C)[C@H]1C(=O)[C@@H]3OC(C)=O (some centres not stated)	33.7
O=C1NC(=O)C(Cc2ccccc2)(c2cccnc2)N1 (configuration not stated)	> 100
COC(=O)c1s/c(=N\C(=S)N(C)C)n(-c2ccccc2)c1C(=O)OC	> 100
COc1ccc(/C=C2\CCC(CNc3cc(C)on3)C2=O)cc1 (configuration not stated)	> 100
COC(=O)C(Cc1c[nH]c2ccccc12)N=C1Nc2ccncc2S(=O)(=O)N1c1ccccc1 (configuration not stated)	> 100
O/N=C(\c1ccccc1)N1CCCCC1	> 100

System: HCT-15 colon
Assay: NCI anticancer screen, dose series, 48 h

SMILES	TGI [µM]
COc1cc(/C=C(\C#N)C(=O)c2ccccc2)ccc1OCc1ccccc1	> 100
C=C1C(=O)C23CC1C[C@H](OC(C)=O)[C@H]2C1(C)C(OC(C)=O)C[C@H](O)C(C)(C)[C@H]1C(=O)[C@@H]3OC(C)=O (some centres not stated)	11
O=C1NC(=O)C(Cc2ccccc2)(c2cccnc2)N1 (configuration not stated)	> 100
COC(=O)c1s/c(=N\C(=S)N(C)C)n(-c2ccccc2)c1C(=O)OC	> 100
COc1ccc(/C=C2\CCC(CNc3cc(C)on3)C2=O)cc1 (configuration not stated)	> 100
COC(=O)C(Cc1c[nH]c2ccccc12)N=C1Nc2ccncc2S(=O)(=O)N1c1ccccc1 (configuration not stated)	> 100

System: IGROV1 ovarian
Assay: NCI anticancer screen, dose series, 48 h

SMILES	TGI [µM]
COc1cc(/C=C(\C#N)C(=O)c2ccccc2)ccc1OCc1ccccc1	> 100
C=C1C(=O)C23CC1C[C@H](OC(C)=O)[C@H]2C1(C)C(OC(C)=O)C[C@H](O)C(C)(C)[C@H]1C(=O)[C@@H]3OC(C)=O (some centres not stated)	25.8
O=C1NC(=O)C(Cc2ccccc2)(c2cccnc2)N1 (configuration not stated)	> 100
COC(=O)c1s/c(=N\C(=S)N(C)C)n(-c2ccccc2)c1C(=O)OC	> 100
COc1ccc(/C=C2\CCC(CNc3cc(C)on3)C2=O)cc1 (configuration not stated)	> 100
COC(=O)C(Cc1c[nH]c2ccccc12)N=C1Nc2ccncc2S(=O)(=O)N1c1ccccc1 (configuration not stated)	98.7

System: DLD-1 colon
Assay: NCI anticancer screen, dose series, 48 h

SMILES	TGI [µM]
O/N=C(\c1ccccc1)N1CCCCC1	> 100

System: LXFL 529 NSCLC
Assay: NCI anticancer screen, dose series, 48 h

SMILES	TGI [µM]
O/N=C(\c1ccccc1)N1CCCCC1	> 100

System: EKVX NSCLC
Assay: NCI anticancer screen, dose series, 48 h

SMILES	TGI [µM]
COc1cc(/C=C(\C#N)C(=O)c2ccccc2)ccc1OCc1ccccc1	> 100
C=C1C(=O)C23CC1C[C@H](OC(C)=O)[C@H]2C1(C)C(OC(C)=O)C[C@H](O)C(C)(C)[C@H]1C(=O)[C@@H]3OC(C)=O (some centres not stated)	15.7
O=C1NC(=O)C(Cc2ccccc2)(c2cccnc2)N1 (configuration not stated)	> 100
COC(=O)c1s/c(=N\C(=S)N(C)C)n(-c2ccccc2)c1C(=O)OC	> 100
COc1ccc(/C=C2\CCC(CNc3cc(C)on3)C2=O)cc1 (configuration not stated)	> 100
COC(=O)C(Cc1c[nH]c2ccccc12)N=C1Nc2ccncc2S(=O)(=O)N1c1ccccc1 (configuration not stated)	> 100

System: UACC-62 melanoma
Assay: NCI anticancer screen, dose series, 48 h

SMILES	TGI [µM]
COc1cc(/C=C(\C#N)C(=O)c2ccccc2)ccc1OCc1ccccc1	> 100
C=C1C(=O)C23CC1C[C@H](OC(C)=O)[C@H]2C1(C)C(OC(C)=O)C[C@H](O)C(C)(C)[C@H]1C(=O)[C@@H]3OC(C)=O (some centres not stated)	9.51
O=C1NC(=O)C(Cc2ccccc2)(c2cccnc2)N1 (configuration not stated)	> 100
COC(=O)c1s/c(=N\C(=S)N(C)C)n(-c2ccccc2)c1C(=O)OC	> 100
COc1ccc(/C=C2\CCC(CNc3cc(C)on3)C2=O)cc1 (configuration not stated)	> 100
COC(=O)C(Cc1c[nH]c2ccccc12)N=C1Nc2ccncc2S(=O)(=O)N1c1ccccc1 (configuration not stated)	58.2

System: SF-539 CNS
Assay: NCI anticancer screen, dose series, 48 h

SMILES	TGI [µM]
COc1cc(/C=C(\C#N)C(=O)c2ccccc2)ccc1OCc1ccccc1	> 100
C=C1C(=O)C23CC1C[C@H](OC(C)=O)[C@H]2C1(C)C(OC(C)=O)C[C@H](O)C(C)(C)[C@H]1C(=O)[C@@H]3OC(C)=O (some centres not stated)	6.47
O=C1NC(=O)C(Cc2ccccc2)(c2cccnc2)N1 (configuration not stated)	> 100
COC(=O)c1s/c(=N\C(=S)N(C)C)n(-c2ccccc2)c1C(=O)OC	> 100
COc1ccc(/C=C2\CCC(CNc3cc(C)on3)C2=O)cc1 (configuration not stated)	> 100
COC(=O)C(Cc1c[nH]c2ccccc12)N=C1Nc2ccncc2S(=O)(=O)N1c1ccccc1 (configuration not stated)	35
O/N=C(\c1ccccc1)N1CCCCC1	> 100

System: MALME-3M melanoma
Assay: NCI anticancer screen, dose series, 48 h

SMILES	TGI [µM]
C=C1C(=O)C23CC1C[C@H](OC(C)=O)[C@H]2C1(C)C(OC(C)=O)C[C@H](O)C(C)(C)[C@H]1C(=O)[C@@H]3OC(C)=O (some centres not stated)	5.15
O=C1NC(=O)C(Cc2ccccc2)(c2cccnc2)N1 (configuration not stated)	> 100
COC(=O)c1s/c(=N\C(=S)N(C)C)n(-c2ccccc2)c1C(=O)OC	> 100
COc1ccc(/C=C2\CCC(CNc3cc(C)on3)C2=O)cc1 (configuration not stated)	> 100
COC(=O)C(Cc1c[nH]c2ccccc12)N=C1Nc2ccncc2S(=O)(=O)N1c1ccccc1 (configuration not stated)	40.5

System: NCI-H226 lung
Assay: NCI anticancer screen, dose series, 48 h

SMILES	TGI [µM]
COc1cc(/C=C(\C#N)C(=O)c2ccccc2)ccc1OCc1ccccc1	> 100
C=C1C(=O)C23CC1C[C@H](OC(C)=O)[C@H]2C1(C)C(OC(C)=O)C[C@H](O)C(C)(C)[C@H]1C(=O)[C@@H]3OC(C)=O (some centres not stated)	43.3
O=C1NC(=O)C(Cc2ccccc2)(c2cccnc2)N1 (configuration not stated)	> 100
COC(=O)c1s/c(=N\C(=S)N(C)C)n(-c2ccccc2)c1C(=O)OC	> 100
COc1ccc(/C=C2\CCC(CNc3cc(C)on3)C2=O)cc1 (configuration not stated)	> 100
COC(=O)C(Cc1c[nH]c2ccccc12)N=C1Nc2ccncc2S(=O)(=O)N1c1ccccc1 (configuration not stated)	61.4

System: SNB-78 CNS
Assay: NCI anticancer screen, dose series, 48 h

SMILES	TGI [µM]
COc1cc(/C=C(\C#N)C(=O)c2ccccc2)ccc1OCc1ccccc1	> 100
COC(=O)c1s/c(=N\C(=S)N(C)C)n(-c2ccccc2)c1C(=O)OC	> 100
O/N=C(\c1ccccc1)N1CCCCC1	> 100

System: NCI-H460 lung
Assay: NCI anticancer screen, dose series, 48 h

SMILES	TGI [µM]
C=C1C(=O)C23CC1C[C@H](OC(C)=O)[C@H]2C1(C)C(OC(C)=O)C[C@H](O)C(C)(C)[C@H]1C(=O)[C@@H]3OC(C)=O (some centres not stated)	33.4
O=C1NC(=O)C(Cc2ccccc2)(c2cccnc2)N1 (configuration not stated)	> 100
COC(=O)c1s/c(=N\C(=S)N(C)C)n(-c2ccccc2)c1C(=O)OC	> 100
COc1ccc(/C=C2\CCC(CNc3cc(C)on3)C2=O)cc1 (configuration not stated)	> 100
COC(=O)C(Cc1c[nH]c2ccccc12)N=C1Nc2ccncc2S(=O)(=O)N1c1ccccc1 (configuration not stated)	> 100
O/N=C(\c1ccccc1)N1CCCCC1	> 100

System: HCT-116 colon
Assay: NCI anticancer screen, dose series, 48 h

SMILES	TGI [µM]
COc1cc(/C=C(\C#N)C(=O)c2ccccc2)ccc1OCc1ccccc1	> 100
C=C1C(=O)C23CC1C[C@H](OC(C)=O)[C@H]2C1(C)C(OC(C)=O)C[C@H](O)C(C)(C)[C@H]1C(=O)[C@@H]3OC(C)=O (some centres not stated)	6.16
O=C1NC(=O)C(Cc2ccccc2)(c2cccnc2)N1 (configuration not stated)	> 100
COC(=O)c1s/c(=N\C(=S)N(C)C)n(-c2ccccc2)c1C(=O)OC	> 100
COc1ccc(/C=C2\CCC(CNc3cc(C)on3)C2=O)cc1 (configuration not stated)	> 100
COC(=O)C(Cc1c[nH]c2ccccc12)N=C1Nc2ccncc2S(=O)(=O)N1c1ccccc1 (configuration not stated)	> 100
O/N=C(\c1ccccc1)N1CCCCC1	> 100

System: U251 CNS
Assay: NCI anticancer screen, dose series, 48 h

SMILES	TGI [µM]
C=C1C(=O)C23CC1C[C@H](OC(C)=O)[C@H]2C1(C)C(OC(C)=O)C[C@H](O)C(C)(C)[C@H]1C(=O)[C@@H]3OC(C)=O (some centres not stated)	29.3
O=C1NC(=O)C(Cc2ccccc2)(c2cccnc2)N1 (configuration not stated)	> 100
COC(=O)c1s/c(=N\C(=S)N(C)C)n(-c2ccccc2)c1C(=O)OC	> 100
COc1ccc(/C=C2\CCC(CNc3cc(C)on3)C2=O)cc1 (configuration not stated)	> 100
COC(=O)C(Cc1c[nH]c2ccccc12)N=C1Nc2ccncc2S(=O)(=O)N1c1ccccc1 (configuration not stated)	> 100
O/N=C(\c1ccccc1)N1CCCCC1	> 100

System: OVCAR-3 ovarian
Assay: NCI anticancer screen, dose series, 48 h

SMILES	TGI [µM]
COc1cc(/C=C(\C#N)C(=O)c2ccccc2)ccc1OCc1ccccc1	> 100
C=C1C(=O)C23CC1C[C@H](OC(C)=O)[C@H]2C1(C)C(OC(C)=O)C[C@H](O)C(C)(C)[C@H]1C(=O)[C@@H]3OC(C)=O (some centres not stated)	12.7
O=C1NC(=O)C(Cc2ccccc2)(c2cccnc2)N1 (configuration not stated)	> 100
COC(=O)c1s/c(=N\C(=S)N(C)C)n(-c2ccccc2)c1C(=O)OC	> 100
COc1ccc(/C=C2\CCC(CNc3cc(C)on3)C2=O)cc1 (configuration not stated)	> 100
